# “And” between values parts separate entries of the source, which are not always exact repeats. Identical values can stand only once.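 Method: 48-hour compound exposure of cells in 96-well plates, five concentrations, linear interpolation of endpoints. Here, GI50 denotes the concentration required for 50% inhibition of growth. TGI: concentration producing complete growth inhibition.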
# Key:
# Assay in all cases: DTP human tumour cell line panel, 48 h
# [1] = tested on: HL-60(TB) leukemia
# [2] = tested on: LXFL 529 NSCLC
# [3] = tested on: SN12C renal
# [4] = tested on: KM12 colon
# [5] = tested on: SK-MEL-2 melanoma
# [6] = tested on: UO-31 renal
# [7] = tested on: HOP-18 NSCLC
# [8] = tested on: KM20L2 colon
# [9] = tested on: SNB-75 CNS
# [10] = tested on: MDA-MB-435
SMILES,TGI [1],TGI [2],TGI [3],TGI [4] [µM],TGI [5],TGI [6] [µM],TGI [7] [µM],TGI [8] [µM],TGI [9],GI50 [1],GI50 [2] [µM],GI50 [3],GI50 [9],GI50 [4],GI50 [5],GI50 [6],GI50 [7] [µM],GI50 [8] [µM],GI50 [10],TGI [10] [µM]
Cc1ccc(/C=C(\NC(=O)c2ccccc2)c2nc3ccccc3[nH]2)cc1,56.8 µM,> 100 µM,> 100 µM,> 100,80.1 µM,> 100,> 100,> 100,,,,,,,,,,,,
Cc1[nH]c2ccccc2c1CC/C(=N\Nc1ccccc1)c1ccccc1,> 100 µM,,,> 100,> 100 µM,> 100,,> 100,> 100 µM,,,,,,,,,,,
CSc1ccc2c(cc1=O)[C@@H](NC(=O)c1ccc(Cl)cc1)CCc1cc(O)c(O)c(O)c1-2,> 100 µM,> 100 µM,75.8 µM,> 100,> 100 µM,> 100,> 100,> 100,> 100 µM,,,,,,,,,,,
CCC1C(C(=O)Nc2ccccc2C)=C(C)NC(C)=C1c1ccccc1C (configuration not stated),31.5 µM,> 100 µM,> 100 µM,> 100,> 100 µM,> 100,> 100,> 100,> 100 µM,,,,,,,,,,,
O=C(Cc1nc2ccccc2o1)C(=O)Nc1cccc(Cl)c1,> 100 µM,> 100 µM,> 100 µM,> 100,> 100 µM,> 100,> 100,> 100,> 100 µM,,,,,,,,,,,
CCN(CC)CC(C)C(=O)/C=C/c1ccc(C)cc1 (configuration not stated),14.4 µM,3.23 µM,3.02 µM,1.96,,26.4,22.3,21.6,3.17 µM,,,,,,,,,,,
COc1cc2oc(-c3ccccc3)cc(=O)c2c(O)c1C,> 100 µM,> 100 µM,> 100 µM,> 100,> 100 µM,> 100,,> 100,> 100 µM,,,,,,,,,,,
O=C(/C=C/c1ccccc1O)c1ccc([N+](=O)[O-])cc1,56.9 µM,26.7 µM,30.8 µM,40.4,66.8 µM,33.2,> 100,39.7,31.6 µM,,,,,,,,,,,
CSc1nc2nn(Cc3ccccc3)cc2c(=O)[nH]1,> 100 µM,> 100 µM,> 100 µM,> 100,> 100 µM,> 100,> 100,> 100,> 100 µM,,,,,,,,,,,
CN(C)CCC(CCN(C)C)=NO,> 100 µM,> 100 µM,> 100 µM,> 100,> 100 µM,> 100,> 100,> 100,> 100 µM,,,,,,,,,,,
O=C(OCCCl)C1OC(n2cc(F)c(=O)[nH]c2=O)CC1O (configuration not stated),> 100 µM,> 100 µM,> 100 µM,> 100,> 100 µM,> 100,> 100,> 100,> 100 µM,,,,,,,,,,,
CCn1c2ccccc2c(=O)c2c(OC)ccc(OC)c21,> 82.4 µM,> 100 µM,> 100 µM,> 100,> 100 µM,> 89.9,,> 100,,,,,,,,,,,,
C=CC(=O)NC(N)=NC#N,> 66.3 µM and 327 µM,250 µM,293 µM,,,333,283,287,289 µM,132 µM,,,,,,,,,,
O=C(N/C(=C\c1cccc([N+](=O)[O-])c1)c1nc2ccccc2[nH]1)c1ccccc1,,> 100 µM,> 100 µM,> 100,> 100 µM,69.4,,> 100,> 100 µM,,,,,,,,,,,
COC(=O)c1ncc2c(=O)[nH]c3ccccc3c2c1C(=O)OC,> 100 µM,> 100 µM,> 100 µM,> 100,> 100 µM,> 100,> 100,> 100,> 100 µM,,,,,,,,,,,
OCC[N+]12CCCN1CCC2,> 100 µM,> 100 µM,> 100 µM,> 100,> 100 µM,> 100,> 100,> 100,> 100 µM,,,,,,,,,,,
COc1ccc(C(=O)c2c3cc(OC)c(OC)c(OC)c3cc[n+]2C)cc1,,> 100 µM,> 100 µM,> 100,52.2 µM,> 100,80.6,> 100,95.7 µM,,,,,,,,,,,
O=C(CCc1ccccc1)NS(=O)(=O)c1ccccc1,> 100 µM,> 100 µM,> 100 µM,> 100,> 100 µM,> 100,> 100,> 100,> 100 µM,,,,,,,,,,,
CC(C)(C)C(=O)Nc1cccc2oc(-c3ccccc3)cc12,> 100 µM,> 100 µM,> 100 µM,> 100,> 100 µM,> 100,> 100,> 100,> 100 µM,,,,,,,,,,,
NC1CCCCC1N.O=C1C=C/C(=C(/c2ccc(O)c(Br)c2)c2ccccc2S(=O)(=O)[O-])C=C1Br.O=C1C=C/C(=C(/c2ccc(O)c(Br)c2)c2ccccc2S(=O)(=O)[O-])C=C1Br.[Pt+4],> 100 µM,> 100 µM,> 100 µM,> 100,> 100 µM,> 100,> 100,> 100,> 100 µM,1.43 µM,4.43,3.59 µM,0.992 µM,32.6 µM,10.1 µM,8.03 µM,7.95,0.755,,
NS(=O)(=O)c1ccc(NC(=O)Cc2nc3ccccc3s2)cc1,45.7 µM,30.7 µM,30.9 µM,30.8,31.9 µM,62.6,34.8,33.9,30.4 µM,,,,,,,,,,,

SMILES,TGI [1],TGI [2],TGI [3],TGI [4] [µM],TGI [5],TGI [6] [µM],TGI [7] [µM],TGI [8] [µM],TGI [9],GI50 [1],GI50 [2] [µM],GI50 [3],GI50 [9],GI50 [4],GI50 [5],GI50 [6],GI50 [7] [µM],GI50 [8] [µM],GI50 [10],TGI [10] [µM]
COc1cccc(/C=C/C(=O)c2sc(C(N)=S)nc2C)c1O,> 100 µM,> 50.1 µM,> 100 µM,> 100,> 100 µM,> 100,> 100,> 100,> 100 µM,,,,,,,,,,,
C#Cc1cccc(Nc2ncnc3ccc(OCCCCNCCS(C)(=O)=O)cc23)c1,11.3 µM,,> 25 µM,> 25,17.8 µM,> 15.4,,,> 25 µM,5.37 µM,,5.89 µM,10.7 µM,9.74 µM,7.75 µM,3.31 µM,,,5.37 µM,12.5
C=CC(=O)N1C[C@@H]2CCOc3c(Cl)c(-c4c(O)cccc4F)c(F)c4ncnc(c34)N2C[C@H]1C,33.1 µM,,31.3 µM,36.1,28.7 µM,25.3,,,23.5 µM,4.81 µM,,13 µM,10.8 µM,14.7 µM,14 µM,12.3 µM,,,11.8 µM,29.6
N#CCC(=O)N/N=C1/C(=O)N(c2cc(Cl)ccc2Cl)C(=O)C(=O)C1c1nc2ccccc2s1 (configuration not stated),> 100 µM,> 100 µM,> 100 µM,> 100,> 100 µM,> 100,> 100,> 100,> 100 µM,,,,,,,,,,,
Cc1ccc(C=C2C(Cl)=C(Cl)C(Cl)=C2Cl)cc1,1.53 µM,,3.02 µM,2.56,4.87 µM,2.18,,,2.44 µM,0.363 µM,,0.832 µM,1.16 µM,1.15 µM,1.9 µM,0.757 µM,,,0.42 µM,1.6
Cc1cnc2oc3ccc(O)cc3c2c1-c1ccccc1,> 100 µM,,47.3 µM,> 100,> 100 µM,> 100,,,> 100 µM,> 100 µM,,10 µM,21.2 µM,> 100 µM,> 100 µM,51.6 µM,,,> 100 µM,> 100
O=C(c1ccccc1Cl)n1oc2ccccc2c1=O,51 µM,,> 100 µM,> 100,> 100 µM,> 100,,,> 100 µM,,,,,,,,,,,> 100
O=C(C=P(c1ccccc1)(c1ccccc1)c1ccccc1)CCl,6.12 µM,,4.53 µM,5.09,3.87 µM,2.38,,,7.57 µM,1.31 µM,,1.46 µM,1.19 µM,1.94 µM,1.79 µM,1.04 µM,,,0.894 µM,2.34
Cn1cc(C2=C(c3cn(-c4ccccc4)c4ccccc34)C(=O)NC2=O)c2ccccc21,> 25 µM,,> 25 µM,> 25,> 25 µM,> 25,,,> 25 µM,8.91 µM,,15.8 µM,5.76 µM,8.12 µM,9.14 µM,5.35 µM,,,6.01 µM,> 20.5
Cc1ccc(S(=O)(=O)N2CCN(C=S)CC2)cc1,> 100 µM,> 100 µM,> 100 µM,> 100,> 100 µM,> 100,> 100,> 100,> 100 µM,,,,,,,,,,,
CC(C)(C)c1cc(CCCCCCCC2(CCCCCCCc3cc(C(C)(C)C)cc(C(C)(C)C)c3)OC(COCCOCCCCCC#N)C(COCCOCCCCCC#N)O2)cc(C(C)(C)C)c1 (configuration not stated),> 100 µM,> 100 µM,> 100 µM,> 100,> 100 µM,> 100,> 100,> 100,> 100 µM,,,,,,,,,,,
Oc1ccc2c3c1OC1c4[nH]ncc4C[C@H]4[C@@H](C2)N(CC2CC2)CC[C@]314 (some centres not stated),> 100 µM,,> 100 µM,> 100,> 100 µM,> 100,,,> 100 µM,,,,,,,,,,,> 100
O=[N+]([O-])c1ccc(C(Cl)C(Cl)c2ccc(C(Cl)C(Cl)c3ccc([N+](=O)[O-])cc3[N+](=O)[O-])cc2)c([N+](=O)[O-])c1 (configuration not stated),,1.9 µM and 0.377 µM,5.41 µM and 1.25 µM,0.812,3.27 µM and 0.472 µM,,,2.28,,0.132 µM,0.179,0.307 µM,0.231 µM,,0.231 µM,0.244 µM,,,,
CCOC(=O)C(CCC(N)=O)(CCC(=O)OC)C(=O)OCC,> 100 µM,> 100 µM,> 100 µM,> 100,,> 100,> 100,> 100,> 100 µM,,,,,,,,,,,
NC(=S)N/N=C1\c2ccccc2-c2c(F)c(F)c(F)c(F)c21,16 µM,,20 µM,16.3,21.7 µM,9.03,,,21.6 µM,3.58 µM,,7.31 µM,6.36 µM,5.88 µM,5.38 µM,4.31 µM,,,7.44 µM,20.6
CCOc1ccc(/C=C/c2cc(OC)c(OC)c(OC)c2)cc1,1.46 µM,15.1 µM,> 28 µM,> 41.6,20.7 µM,> 100,> 100,6.81,> 64.1 µM,,,,,,,,,,,
N#CC(C#N)=C1CCOc2ccc(F)cc21,> 100 µM,,40.1 µM,> 100,> 100 µM,> 100,,,81.9 µM,66.5 µM,,19.8 µM,22.7 µM,49.7 µM,> 100 µM,56.3 µM,,,> 100 µM,> 100
Clc1cc(Cl)c(OCCCCCCN2CCNCC2)c(Cl)c1,3.82 µM,,23.6 µM,3.6,18.1 µM,5.44,,,11.7 µM,1.86 µM,,6.42 µM,2.64 µM,1.8 µM,5.52 µM,2 µM,,,2.02 µM,4.23
CCc1cnn2c(NCc3ccc[n+]([O-])c3)cc(N3CCCC[C@H]3CCO)nc12,< 0.01 µM and 0.0112 µM,,> 100 µM,> 10,0.0237 µM and 0.0107 µM,0.0692,,,< 0.0145 µM and 0.00437 µM,< 0.01 µM and 0.00319 µM,,< 0.01 µM and 0.00406 µM,< 0.01 µM and 0.00174 µM,< 0.01 µM and 0.0034 µM,< 0.01 µM and 0.00315 µM,0.0201 µM and 0.0228 µM,,,< 0.01 µM and 0.00331 µM,
C/C(=N\OCC(O)CNCCSCc1ccccc1)c1ccccc1Cl (configuration not stated),50.1 µM,,34.8 µM,40.2,62.7 µM,32.4,,,39.9 µM,,,,,,,,,,,34.4
O=C1C(=C([O-])c2ccccc2)C(=O)c2ccccc21.O=C1C(=C([O-])c2ccccc2)C(=O)c2ccccc21.[Mn+2],,,> 100 µM,> 100,> 100 µM,> 100,> 100,,> 100 µM,,,91.6 µM,> 100 µM,72.9 µM,> 100 µM,43.9 µM,35.4,,,

# Source: PubChem BioAssay (NCI)
